# Assay results: BindingDB's records for doi:10.1016/j.bmcl.2008.09.059 (Seoul National University, 2008)
# pIC50: −log10 of the molar value.
# Target: Isocitrate lyase (Candida albicans, UniProt Q9P8Q7)
# Test: Inhibition of candida albicans isocitrate lyase
# Chain of Isocitrate lyase (Q9P8Q7 whole entry): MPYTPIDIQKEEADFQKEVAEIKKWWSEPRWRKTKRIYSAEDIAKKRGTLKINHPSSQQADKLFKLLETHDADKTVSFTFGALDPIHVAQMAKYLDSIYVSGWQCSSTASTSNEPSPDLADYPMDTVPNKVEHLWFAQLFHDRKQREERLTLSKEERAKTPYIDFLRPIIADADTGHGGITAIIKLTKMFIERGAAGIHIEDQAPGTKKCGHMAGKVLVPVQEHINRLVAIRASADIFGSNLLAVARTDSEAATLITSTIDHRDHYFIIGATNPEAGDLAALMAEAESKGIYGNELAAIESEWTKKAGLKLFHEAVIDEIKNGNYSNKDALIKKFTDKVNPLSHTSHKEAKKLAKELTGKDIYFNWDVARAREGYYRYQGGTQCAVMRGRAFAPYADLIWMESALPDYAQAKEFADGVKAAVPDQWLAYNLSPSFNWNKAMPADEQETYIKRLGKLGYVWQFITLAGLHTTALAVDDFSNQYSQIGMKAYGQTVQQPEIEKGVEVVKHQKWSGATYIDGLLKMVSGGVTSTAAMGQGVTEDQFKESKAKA
structure (smiles),measurement,value
CC1=CC[C@H]2C(C)(C)CCC[C@]2(C)[C@H]1C[C@@H](OS(=O)(=O)O)[C@H](C)CCC/C(C)=C/Cc1cc(O)ccc1O,pIC50,3.80
